Data published in patent publication US4725683A, “Fluorophenoxyphenoxypropionates and derivatives thereof” (The Dow Chemical Company, priority 1985, dated 1988).

Columns and labels:
Type in all cases: in vivo
Red Top = assay: Selective postemergence, track sprayer
Method in brief: (§1)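 Potted grasses about 10 cm tall were treated postemergence with a track sprayer delivering the chosen dosages in 280.6 L/hectare of water containing 0.1% Tween-20. Pots sprayed without toxicant served as controls. Growth was rated two weeks after treatment on a 0–100 scale (0 no effect, 100 complete kill).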

Sprangletop = assay: Selective postemergence, track sprayer
Method in brief: as §1

Wild Oats = assay: Selective postemergence, track sprayer
Method in brief: as §1

Annual Bluegrass = assay: Selective postemergence, track sprayer
Method in brief: as §1

Crabgrass [1] = assay: Selective postemergence, track sprayer
Method in brief: as §1

Giant Foxtail = assay: Selective postemergence, track sprayer
Method in brief: as §1

Bermudagrass = assay: Selective postemergence, track sprayer
Method in brief: as §1

Canarygrass = assay: Selective postemergence, track sprayer
Method in brief: as §1

Johnson Grass = assay: Preemergent activity; settings: Sorghum halepense, pre-emergence, read-out: Preemergence Control; for pest or weed control at 70 g/ha: 0.07 kgs/hectare; for pest or weed control at 280 g/ha: 0.28 kgs/hectare
Method in brief: (§2)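 Test compound was applied in acetone mixed with an equal volume of water containing 0.1% Tween-20, sprayed preemergence onto seed beds of sandy loam soil sown with the test species. Beds were kept under identical temperature and light. A solvent-only spray served as control.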

Crabgrass [2] = assay: Preemergent activity
Method in brief: as §2

Yellow Foxtail = assay: Preemergent activity; settings: Setaria, pre-emergence, read-out: Preemergence Control; for pest or weed control at 70 g/ha: 0.07 kgs/hectare; for pest or weed control at 280 g/ha: 0.28 kgs/hectare
Method in brief: as §2

COC(=O)[C@@H](C)Oc1ccc(Oc2ccc(Br)cc2F)cc1 [4-Bromo-(R-Enantiomer), R enantiomer of 2-[4-(4-bromo-2-fluorophenoxy)phenoxy]propionic acid methyl ester]
Percent Control (Red Top; 0.00055 kgs/hectare): 0% | Percent Control (Red Top; 0.0011 kgs/hectare): 0% | Percent Control (Red Top; 0.0023 kgs/hectare): 0% | Percent Control (Red Top; 0.0045 kgs/hectare): 0% | Percent Control (Red Top; 0.009 kgs/hectare): 0% | Percent Control (Red Top; 0.018 kgs/hectare): 0% | Percent Control (Red Top; 0.035 kgs/hectare): 30% | Percent Control (Red Top; 0.07 kgs/hectare): 90% | Percent Control (Red Top; 0.14 kgs/hectare): 90% | Percent Control (Red Top; 0.28 kgs/hectare): 90% | Percent Control (Sprangletop; 0.00055 kgs/hectare): 0% | Percent Control (Sprangletop; 0.0011 kgs/hectare): 20% | Percent Control (Sprangletop; 0.0023 kgs/hectare): 100% | Percent Control (Sprangletop; 0.0045 kgs/hectare): 100% | Percent Control (Sprangletop; 0.009 kgs/hectare): 100% | Percent Control (Sprangletop; 0.018 kgs/hectare): 100% | Percent Control (Sprangletop; 0.035 kgs/hectare): 100% | Percent Control (Sprangletop; 0.07 kgs/hectare): 100% | Percent Control (Sprangletop; 0.14 kgs/hectare): 100% | Percent Control (Sprangletop; 0.28 kgs/hectare): 100% | Percent Control (Wild Oats; 0.00055 kgs/hectare): 0% | Percent Control (Wild Oats; 0.0011 kgs/hectare): 0% | Percent Control (Wild Oats; 0.0023 kgs/hectare): 0% | Percent Control (Wild Oats; 0.0045 kgs/hectare): 0% | Percent Control (Wild Oats; 0.009 kgs/hectare): 20% | Percent Control (Wild Oats; 0.018 kgs/hectare): 20% | Percent Control (Wild Oats; 0.035 kgs/hectare): 40% | Percent Control (Wild Oats; 0.07 kgs/hectare): 70% | Percent Control (Wild Oats; 0.14 kgs/hectare): 70% | Percent Control (Wild Oats; 0.28 kgs/hectare): 95% | Percent Control (Annual Bluegrass; 0.00055 kgs/hectare): 0% | Percent Control (Annual Bluegrass; 0.0011 kgs/hectare): 0% | Percent Control (Annual Bluegrass; 0.0023 kgs/hectare): 0% | Percent Control (Annual Bluegrass; 0.0045 kgs/hectare): 0% | Percent Control (Annual Bluegrass; 0.009 kgs/hectare): 0% | Percent Control (Annual Bluegrass; 0.018 kgs/hectare): 0% | Percent Control (Annual Bluegrass; 0.035 kgs/hectare): 0% | Percent Control (Annual Bluegrass; 0.07 kgs/hectare): 0% | Percent Control (Annual Bluegrass; 0.14 kgs/hectare): 0% | Percent Control (Annual Bluegrass; 0.28 kgs/hectare): 0% | Percent Control (Crabgrass [1]; 0.00055 kgs/hectare): 0% | Percent Control (Crabgrass [1]; 0.0011 kgs/hectare): 0% | Percent Control (Crabgrass [1]; 0.0023 kgs/hectare): 0% | Percent Control (Crabgrass [1]; 0.0045 kgs/hectare): 50% | Percent Control (Crabgrass [1]; 0.009 kgs/hectare): 90% | Percent Control (Crabgrass [1]; 0.018 kgs/hectare): 90% | Percent Control (Crabgrass [1]; 0.035 kgs/hectare): 70% | Percent Control (Crabgrass [1]; 0.07 kgs/hectare): 100% | Percent Control (Crabgrass [1]; 0.14 kgs/hectare): 100% | Percent Control (Crabgrass [1]; 0.28 kgs/hectare): 100% | Percent Control (Giant Foxtail; 0.00055 kgs/hectare): 80% | Percent Control (Giant Foxtail; 0.0011 kgs/hectare): 100% | Percent Control (Giant Foxtail; 0.0023 kgs/hectare): 100% | Percent Control (Giant Foxtail; 0.0045 kgs/hectare): 100% | Percent Control (Giant Foxtail; 0.009 kgs/hectare): 100% | Percent Control (Giant Foxtail; 0.018 kgs/hectare): 100% | Percent Control (Giant Foxtail; 0.035 kgs/hectare): 100% | Percent Control (Giant Foxtail; 0.07 kgs/hectare): 100% | Percent Control (Giant Foxtail; 0.14 kgs/hectare): 100% | Percent Control (Giant Foxtail; 0.28 kgs/hectare): 100% | Percent Control (Bermudagrass; 0.00055 kgs/hectare): 0% | Percent Control (Bermudagrass; 0.0011 kgs/hectare): 0% | Percent Control (Bermudagrass; 0.0023 kgs/hectare): 0% | Percent Control (Bermudagrass; 0.0045 kgs/hectare): 20% | Percent Control (Bermudagrass; 0.009 kgs/hectare): 30% | Percent Control (Bermudagrass; 0.018 kgs/hectare): 60% | Percent Control (Bermudagrass; 0.035 kgs/hectare): 90% | Percent Control (Bermudagrass; 0.07 kgs/hectare): 90% | Percent Control (Bermudagrass; 0.14 kgs/hectare): 90% | Percent Control (Bermudagrass; 0.28 kgs/hectare): 95% | Percent Control (Canarygrass; 0.00055 kgs/hectare): 0% | Percent Control (Canarygrass; 0.0011 kgs/hectare): 0% | Percent Control (Canarygrass; 0.0023 kgs/hectare): 0% | Percent Control (Canarygrass; 0.0045 kgs/hectare): 0% | Percent Control (Canarygrass; 0.009 kgs/hectare): 0% | Percent Control (Canarygrass; 0.018 kgs/hectare): 0% | Percent Control (Canarygrass; 0.035 kgs/hectare): 100% | Percent Control (Canarygrass; 0.07 kgs/hectare): 100% | Percent Control (Canarygrass; 0.14 kgs/hectare): 100% | Percent Control (Canarygrass; 0.28 kgs/hectare): 100%

COC(=O)C(C)Oc1ccc(Oc2ccc(Cl)cc2F)cc1 (racemic) [Example 4-Chloro-, 2-[4-(4-chloro-2-fluorophenoxy)phenoxy]propionic acid methyl ester]
pest or weed control at 70 g/ha (Johnson Grass): 0% | pest or weed control at 140 g/ha (Johnson Grass; 0.14 kgs/hectare): 0% | pest or weed control at 280 g/ha (Johnson Grass): 0% | pest or weed control at 560 g/ha (Johnson Grass; 0.56 kgs/hectare): 60% | pest or weed control at 1120 g/ha (Johnson Grass; 1.12 kgs/hectare): 80% | Preemergence Control (Crabgrass [2]; 0.07 kgs/hectare): 60% | Preemergence Control (Crabgrass [2]; 0.14 kgs/hectare): 100% | Preemergence Control (Crabgrass [2]; 0.28 kgs/hectare): 100% | Preemergence Control (Crabgrass [2]; 0.56 kgs/hectare): 100% | Preemergence Control (Crabgrass [2]; 1.12 kgs/hectare): 100% | pest or weed control at 70 g/ha (Yellow Foxtail): 0% | pest or weed control at 140 g/ha (Yellow Foxtail; 0.14 kgs/hectare): 10% | pest or weed control at 280 g/ha (Yellow Foxtail): 90% | pest or weed control at 560 g/ha (Yellow Foxtail; 0.56 kgs/hectare): 95% | pest or weed control at 1120 g/ha (Yellow Foxtail; 1.12 kgs/hectare): 95%

COC(=O)C(C)Oc1ccc(Oc2ccc(C(F)(F)F)cc2F)cc1 (stereo not shown) [2-[4-(2-fluoro-4-trifluoromethylphenoxy)phenoxy]propionic acid methyl ester]
pest or weed control at 18 g/ha (Johnson Grass; 0.018 kgs/hectare): 20% | pest or weed control at 35 g/ha (Johnson Grass; 0.035 kgs/hectare): 60% | pest or weed control at 70 g/ha (Johnson Grass): 90% | pest or weed control at 114 g/ha (Johnson Grass; 0.114 kgs/hectare): 100% | pest or weed control at 280 g/ha (Johnson Grass): 100% | Preemergence Control (Crabgrass [2]; 0.018 kgs/hectare): 40% | Preemergence Control (Crabgrass [2]; 0.035 kgs/hectare): 100% | Preemergence Control (Crabgrass [2]; 0.07 kgs/hectare): 100% | Preemergence Control (Crabgrass [2]; 0.114 kgs/hectare): 100% | Preemergence Control (Crabgrass [2]; 0.28 kgs/hectare): 100% | pest or weed control at 18 g/ha (Yellow Foxtail; 0.018 kgs/hectare): 20% | pest or weed control at 35 g/ha (Yellow Foxtail; 0.035 kgs/hectare): 70% | pest or weed control at 70 g/ha (Yellow Foxtail): 100% | pest or weed control at 114 g/ha (Yellow Foxtail; 0.114 kgs/hectare): 100% | pest or weed control at 280 g/ha (Yellow Foxtail): 100%

COC(=O)C(C)Oc1ccc(Oc2ccc(Br)cc2F)cc1 (racemic) [Example 4-Bromo-, 2-[4-(4-bromo-2-fluorophenoxy)phenoxy]propionic acid methyl ester]
Percent Control (Red Top; 0.0011 kgs/hectare): 0% | Percent Control (Red Top; 0.0023 kgs/hectare): 0% | Percent Control (Red Top; 0.0045 kgs/hectare): 0% | Percent Control (Red Top; 0.009 kgs/hectare): 20% | Percent Control (Red Top; 0.035 kgs/hectare): 50% | Percent Control (Red Top; 0.07 kgs/hectare): 80% | Percent Control (Red Top; 0.14 kgs/hectare): 90% | Percent Control (Red Top; 0.28 kgs/hectare): 100% | Percent Control (Red Top; 0.56 kgs/hectare): 100% | Percent Control (Sprangletop; 0.0011 kgs/hectare): 0% | Percent Control (Sprangletop; 0.0023 kgs/hectare): 20% | Percent Control (Sprangletop; 0.0045 kgs/hectare): 95% | Percent Control (Sprangletop; 0.009 kgs/hectare): 100% | Percent Control (Sprangletop; 0.035 kgs/hectare): 100% | Percent Control (Sprangletop; 0.14 kgs/hectare): 100% | Percent Control (Sprangletop; 0.28 kgs/hectare): 100% | Percent Control (Sprangletop; 0.56 kgs/hectare): 100% | Percent Control (Wild Oats; 0.0011 kgs/hectare): 0% | Percent Control (Wild Oats; 0.0023 kgs/hectare): 0% | Percent Control (Wild Oats; 0.0045 kgs/hectare): 0% | Percent Control (Wild Oats; 0.009 kgs/hectare): 0% | Percent Control (Wild Oats; 0.035 kgs/hectare): 40% | Percent Control (Wild Oats; 0.07 kgs/hectare): 40% | Percent Control (Wild Oats; 0.14 kgs/hectare): 70% | Percent Control (Wild Oats; 0.28 kgs/hectare): 90% | Percent Control (Wild Oats; 0.56 kgs/hectare): 100% | Percent Control (Annual Bluegrass; 0.0011 kgs/hectare): 0% | Percent Control (Annual Bluegrass; 0.0023 kgs/hectare): 0% | Percent Control (Annual Bluegrass; 0.0045 kgs/hectare): 0% | Percent Control (Annual Bluegrass; 0.009 kgs/hectare): 0% | Percent Control (Annual Bluegrass; 0.018 kgs/hectare): 0% | Percent Control (Annual Bluegrass; 0.035 kgs/hectare): 0% | Percent Control (Annual Bluegrass; 0.07 kgs/hectare): 0% | Percent Control (Annual Bluegrass; 0.14 kgs/hectare): 0% | Percent Control (Annual Bluegrass; 0.28 kgs/hectare): 0% | Percent Control (Annual Bluegrass; 0.56 kgs/hectare): 0% | Percent Control (Crabgrass [1]; 0.0011 kgs/hectare): 0% | Percent Control (Crabgrass [1]; 0.0023 kgs/hectare): 0% | Percent Control (Crabgrass [1]; 0.0045 kgs/hectare): 50% | Percent Control (Crabgrass [1]; 0.009 kgs/hectare): 50% | Percent Control (Crabgrass [1]; 0.035 kgs/hectare): 100% | Percent Control (Crabgrass [1]; 0.07 kgs/hectare): 100% | Percent Control (Crabgrass [1]; 0.14 kgs/hectare): 100% | Percent Control (Crabgrass [1]; 0.28 kgs/hectare): 100% | Percent Control (Crabgrass [1]; 0.56 kgs/hectare): 100% | Percent Control (Giant Foxtail; 0.0011 kgs/hectare): 100% | Percent Control (Giant Foxtail; 0.0023 kgs/hectare): 100% | Percent Control (Giant Foxtail; 0.0045 kgs/hectare): 100% | Percent Control (Giant Foxtail; 0.009 kgs/hectare): 100% | Percent Control (Giant Foxtail; 0.035 kgs/hectare): 100% | Percent Control (Giant Foxtail; 0.14 kgs/hectare): 100% | Percent Control (Giant Foxtail; 0.28 kgs/hectare): 100% | Percent Control (Giant Foxtail; 0.56 kgs/hectare): 100% | Percent Control (Bermudagrass; 0.0011 kgs/hectare): 0% | Percent Control (Bermudagrass; 0.0023 kgs/hectare): 0% | Percent Control (Bermudagrass; 0.0045 kgs/hectare): 0% | Percent Control (Bermudagrass; 0.009 kgs/hectare): 20% | Percent Control (Bermudagrass; 0.035 kgs/hectare): 90% | Percent Control (Bermudagrass; 0.07 kgs/hectare): 95% | Percent Control (Bermudagrass; 0.14 kgs/hectare): 90% | Percent Control (Bermudagrass; 0.28 kgs/hectare): 100% | Percent Control (Bermudagrass; 0.56 kgs/hectare): 100% | Percent Control (Canarygrass; 0.0011 kgs/hectare): 0% | Percent Control (Canarygrass; 0.0023 kgs/hectare): 0% | Percent Control (Canarygrass; 0.0045 kgs/hectare): 0% | Percent Control (Canarygrass; 0.009 kgs/hectare): 0% | Percent Control (Canarygrass; 0.035 kgs/hectare): 50% | Percent Control (Canarygrass; 0.07 kgs/hectare): 100% | Percent Control (Canarygrass; 0.14 kgs/hectare): 100% | Percent Control (Canarygrass; 0.28 kgs/hectare): 100% | Percent Control (Canarygrass; 0.56 kgs/hectare): 100%
